How the values were obtained:
Conditions in all cases: exposure time: 72 h
E28 [1] = patient-derived glioblastoma stem cells of classical subtype; assay: phenotypic distance (Euclidean, principal components) from DMSO controls (arbitrary units); higher = stronger morphological change
FT3469 [2] = normal neural stem cell line; assay: as above
E13 [3] = patient-derived glioblastoma stem cells of classical subtype; assay: as above
E34 [4] = patient-derived glioblastoma stem cells of proneural subtype; assay: as above
E57 [5] = patient-derived glioblastoma stem cells of mesenchymal subtype; assay: as above
E21 [6] = patient-derived glioblastoma stem cells of mesenchymal subtype; assay: as above
E31 [7] = patient-derived glioblastoma stem cells of proneural subtype; assay: as above
E28 [8] = assay: surviving fraction (nuclei count normalised to DMSO); higher = more cells surviving (less toxic)
FT3469 [9] = assay: as above
E13 [10] = assay: as above
E34 [11] = assay: as above
E57 [12] = assay: as above
E21 [13] = assay: as above
E31 [14] = assay: as above
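For phenotypic distance (Euclidean, principal components) from DMSO controls in this document: cell Painting imaging in 384-well plates, CellProfiler features reduced to at least 20 principal components, Euclidean distance versus same-plate DMSO vehicle wells (0.1% v/v), median over six images per well.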
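For surviving fraction (nuclei count normalised to DMSO) in this document: nuclei counted by high-content imaging of Hoechst-stained cells in laminin-coated 384-well plates, relative to 0.1% DMSO vehicle wells, with staurosporine as cell-death control.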

CC1(C(=O)O)C2CCC(O2)C1(C)C(=O)O (stereo unspecified) [Cantharidic Acid]
Conditions	phenotypic distance	surviving fraction
E13 [3], 4.1 nM	0.746	–
E13 [3], 12.3 nM	0.673	–
E13 [3], 37 nM	0.774	–
E13 [3], 111.1 nM	0.872	–
E13 [3], 333.3 nM	0.83	–
E13 [3], 1000 nM	0.671	–
E13 [3], 3000 nM	2.26	–
E13 [10], 4.1 nM	–	0.839
E13 [10], 12.3 nM	–	0.973
E13 [10], 37 nM	–	0.995
E13 [10], 111.1 nM	–	1.11
E13 [10], 333.3 nM	–	0.921
E13 [10], 1000 nM	–	1.02
E13 [10], 3000 nM	–	0.939
E21 [6], 4.1 nM	0.625	–
E21 [6], 12.3 nM	0.711	–
E21 [6], 37 nM	1.21	–
E21 [6], 111.1 nM	0.773	–
E21 [6], 333.3 nM	0.585	–
E21 [6], 1000 nM	0.482	–
E21 [6], 3000 nM	2.17	–
E21 [13], 4.1 nM	–	0.955
E21 [13], 12.3 nM	–	0.853
E21 [13], 37 nM	–	1.11
E21 [13], 111.1 nM	–	1
E21 [13], 333.3 nM	–	1.03
E21 [13], 1000 nM	–	0.954
E21 [13], 3000 nM	–	0.922
E28 [1], 4.1 nM	0.917	–
E28 [1], 12.3 nM	0.654	–
E28 [1], 37 nM	0.463	–
E28 [1], 111.1 nM	0.528	–
E28 [1], 333.3 nM	0.599	–
E28 [1], 1000 nM	0.909	–
E28 [1], 3000 nM	2.54	–
E28 [8], 4.1 nM	–	0.901
E28 [8], 12.3 nM	–	1.05
E28 [8], 37 nM	–	0.971
E28 [8], 111.1 nM	–	1.07
E28 [8], 333.3 nM	–	1.11
E28 [8], 1000 nM	–	1.15
E28 [8], 3000 nM	–	0.771
E31 [7], 4.1 nM	1.05	–
E31 [7], 12.3 nM	0.816	–
E31 [7], 37 nM	1.07	–
E31 [7], 111.1 nM	1.09	–
E31 [7], 333.3 nM	0.68	–
E31 [7], 1000 nM	0.624	–
E31 [7], 3000 nM	1.67	–
E31 [14], 4.1 nM	–	1.07
E31 [14], 12.3 nM	–	1
E31 [14], 37 nM	–	1.16
E31 [14], 111.1 nM	–	1.05
E31 [14], 333.3 nM	–	1.04
E31 [14], 1000 nM	–	1.08
E31 [14], 3000 nM	–	0.683
E34 [4], 4.1 nM	1.38	–
E34 [4], 12.3 nM	1.36	–
E34 [4], 37 nM	1.46	–
E34 [4], 111.1 nM	1.49	–
E34 [4], 333.3 nM	1.07	–
E34 [4], 1000 nM	0.864	–
E34 [4], 3000 nM	3.29	–
E34 [11], 4.1 nM	–	0.916
E34 [11], 12.3 nM	–	1.08
E34 [11], 37 nM	–	0.914
E34 [11], 111.1 nM	–	1.1
E34 [11], 333.3 nM	–	1.22
E34 [11], 1000 nM	–	1.06
E34 [11], 3000 nM	–	0.832
E57 [5], 4.1 nM	0.632	–
E57 [5], 12.3 nM	0.322	–
E57 [5], 37 nM	0.414	–
E57 [5], 111.1 nM	0.564	–
E57 [5], 333.3 nM	0.544	–
E57 [5], 1000 nM	0.751	–
E57 [5], 3000 nM	1.72	–
E57 [12], 4.1 nM	–	0.985
E57 [12], 12.3 nM	–	0.996
E57 [12], 37 nM	–	0.944
E57 [12], 111.1 nM	–	1.03
E57 [12], 333.3 nM	–	1.04
E57 [12], 1000 nM	–	1.03
E57 [12], 3000 nM	–	0.947
FT3469 [2], 4.1 nM	1.06	–
FT3469 [2], 12.3 nM	0.717	–
FT3469 [2], 37 nM	0.644	–
FT3469 [2], 111.1 nM	0.683	–
FT3469 [2], 333.3 nM	0.991	–
FT3469 [2], 1000 nM	0.653	–
FT3469 [2], 3000 nM	2.25	–
FT3469 [9], 4.1 nM	–	0.889
FT3469 [9], 12.3 nM	–	0.855
FT3469 [9], 37 nM	–	1.07
FT3469 [9], 111.1 nM	–	1.03
FT3469 [9], 333.3 nM	–	1
FT3469 [9], 1000 nM	–	1.06
FT3469 [9], 3000 nM	–	0.777

CC(=O)CC(c1ccc([N+](=O)[O-])cc1)c1c(O)c2ccccc2oc1=O (stereo unspecified) [Acenocoumarol]
Conditions	phenotypic distance	surviving fraction
E13 [3], 4.1 nM	0.426	–
E13 [3], 12.3 nM	0.665	–
E13 [3], 37 nM	2.8	–
E13 [3], 111.1 nM	0.663	–
E13 [3], 333.3 nM	0.594	–
E13 [3], 1000 nM	0.586	–
E13 [3], 3000 nM	0.934	–
E13 [10], 4.1 nM	–	0.91
E13 [10], 12.3 nM	–	1.04
E13 [10], 37 nM	–	1.05
E13 [10], 111.1 nM	–	1.03
E13 [10], 333.3 nM	–	0.873
E13 [10], 1000 nM	–	0.931
E13 [10], 3000 nM	–	0.767
E21 [6], 4.1 nM	1.01	–
E21 [6], 12.3 nM	0.655	–
E21 [6], 37 nM	0.963	–
E21 [6], 111.1 nM	0.772	–
E21 [6], 333.3 nM	0.946	–
E21 [6], 1000 nM	0.684	–
E21 [6], 3000 nM	1.11	–
E21 [13], 4.1 nM	–	0.926
E21 [13], 12.3 nM	–	1.09
E21 [13], 37 nM	–	0.897
E21 [13], 111.1 nM	–	0.931
E21 [13], 333.3 nM	–	0.865
E21 [13], 1000 nM	–	0.954
E21 [13], 3000 nM	–	0.852
E28 [1], 4.1 nM	1.02	–
E28 [1], 12.3 nM	0.39	–
E28 [1], 37 nM	0.547	–
E28 [1], 111.1 nM	0.548	–
E28 [1], 333.3 nM	0.562	–
E28 [1], 1000 nM	1.03	–
E28 [1], 3000 nM	0.857	–
E28 [8], 4.1 nM	–	0.905
E28 [8], 12.3 nM	–	0.999
E28 [8], 37 nM	–	0.918
E28 [8], 111.1 nM	–	0.967
E28 [8], 333.3 nM	–	1.06
E28 [8], 1000 nM	–	0.92
E28 [8], 3000 nM	–	0.901
E31 [7], 4.1 nM	0.829	–
E31 [7], 12.3 nM	0.483	–
E31 [7], 37 nM	1.07	–
E31 [7], 111.1 nM	0.701	–
E31 [7], 333.3 nM	0.894	–
E31 [7], 1000 nM	0.819	–
E31 [7], 3000 nM	1.06	–
E31 [14], 4.1 nM	–	0.989
E31 [14], 12.3 nM	–	0.923
E31 [14], 37 nM	–	0.848
E31 [14], 111.1 nM	–	0.934
E31 [14], 333.3 nM	–	1.03
E31 [14], 1000 nM	–	0.955
E31 [14], 3000 nM	–	0.809
E34 [4], 4.1 nM	1.2	–
E34 [4], 12.3 nM	0.513	–
E34 [4], 37 nM	1.59	–
E34 [4], 111.1 nM	0.677	–
E34 [4], 333.3 nM	0.562	–
E34 [4], 1000 nM	0.954	–
E34 [4], 3000 nM	0.563	–
E34 [11], 4.1 nM	–	0.771
E34 [11], 12.3 nM	–	1.01
E34 [11], 37 nM	–	1.04
E34 [11], 111.1 nM	–	1.06
E34 [11], 333.3 nM	–	0.935
E34 [11], 1000 nM	–	0.918
E34 [11], 3000 nM	–	0.892
E57 [5], 4.1 nM	0.94	–
E57 [5], 12.3 nM	1.02	–
E57 [5], 37 nM	1.11	–
E57 [5], 111.1 nM	1.36	–
E57 [5], 333.3 nM	0.492	–
E57 [5], 1000 nM	0.718	–
E57 [5], 3000 nM	0.744	–
E57 [12], 4.1 nM	–	1.08
E57 [12], 12.3 nM	–	1.09
E57 [12], 37 nM	–	1.02
E57 [12], 111.1 nM	–	1.07
E57 [12], 333.3 nM	–	1.03
E57 [12], 1000 nM	–	0.983
E57 [12], 3000 nM	–	1.02
FT3469 [2], 4.1 nM	1.4	–
FT3469 [2], 12.3 nM	0.712	–
FT3469 [2], 37 nM	1.02	–
FT3469 [2], 111.1 nM	0.751	–
FT3469 [2], 333.3 nM	0.862	–
FT3469 [2], 1000 nM	0.691	–
FT3469 [2], 3000 nM	0.764	–
FT3469 [9], 4.1 nM	–	1.01
FT3469 [9], 12.3 nM	–	1.07
FT3469 [9], 37 nM	–	0.881
FT3469 [9], 111.1 nM	–	1.12
FT3469 [9], 333.3 nM	–	0.823
FT3469 [9], 1000 nM	–	0.849
FT3469 [9], 3000 nM	–	0.771

— the supplement of paper PMC13207355
